Legend:
[1] = molecular target: Amyloid-beta precursor protein (Homo sapiens) (UniProt P05067); test: Observed stimulation of the production of soluble beta-amyloid precursor protein; format: functional
[2] = molecular target: Amyloid-beta precursor protein (Homo sapiens) (UniProt P05067); test: Inhibition of A-beta-42 production by inhibiting Gamma-secretase proteolytic pathway in HEK293 cell stably transfected with a double mutant form of human APP(K595N/M596L), at 2.5 uM concentration; format: cell-based

Sequence of Amyloid-beta precursor protein (Homo sapiens) (P05067 whole entry): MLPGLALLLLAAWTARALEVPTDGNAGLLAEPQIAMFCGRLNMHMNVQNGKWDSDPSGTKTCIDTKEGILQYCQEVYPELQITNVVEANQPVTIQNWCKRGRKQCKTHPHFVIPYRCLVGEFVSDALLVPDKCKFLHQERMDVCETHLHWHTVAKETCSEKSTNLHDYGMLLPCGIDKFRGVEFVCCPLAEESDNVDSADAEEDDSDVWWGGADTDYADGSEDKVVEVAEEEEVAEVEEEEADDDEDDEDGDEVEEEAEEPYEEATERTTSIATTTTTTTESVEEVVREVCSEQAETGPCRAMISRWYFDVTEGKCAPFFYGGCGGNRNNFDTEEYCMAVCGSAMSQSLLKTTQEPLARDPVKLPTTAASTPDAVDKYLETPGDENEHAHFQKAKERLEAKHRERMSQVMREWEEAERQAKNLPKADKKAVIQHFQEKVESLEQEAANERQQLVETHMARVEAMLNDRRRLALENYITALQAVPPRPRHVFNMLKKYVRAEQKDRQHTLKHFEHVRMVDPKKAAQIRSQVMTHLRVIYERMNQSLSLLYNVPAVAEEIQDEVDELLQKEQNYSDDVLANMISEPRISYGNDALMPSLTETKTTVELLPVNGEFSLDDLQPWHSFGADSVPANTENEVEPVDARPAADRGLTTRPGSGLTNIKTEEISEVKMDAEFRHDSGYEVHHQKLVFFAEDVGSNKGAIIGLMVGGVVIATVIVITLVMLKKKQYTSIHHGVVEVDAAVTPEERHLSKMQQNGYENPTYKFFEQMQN

Stimulation [1] [%] | inhibition [2] [%] | SMILES
20 | 31 | CC12CCC(C1)C(C)(C)C2NS(=O)(=O)c1ccc(F)cc1 (stereo not drawn)
23 | 58 | CC12CC[C@@H](C1)C(C)(C)[C@@H]2NS(=O)(=O)c1ccc(F)cc1 (single isomer, unassigned; (+))
0 | 26 | CC12CC[C@@H](C1)C(C)(C)[C@@H]2NS(=O)(=O)c1ccc(Cl)cc1
0 | 24 | CC12CC[C@@H](C1)C(C)(C)[C@@H]2NS(=O)(=O)c1ccc(Br)cc1
 | 0 | CC1(C)[C@@H]2CC[C@@](C)(C2)[C@H]1NS(=O)(=O)c1ccc(F)cc1
32 | 47 | CC12CC[C@@H](C1)C(C)(C)[C@@H]2NS(=O)(=O)c1cccs1
 | 0 | CC12CC[C@@H](C1)C(C)(C)[C@H]2NS(=O)(=O)c1ccc(F)cc1
 | 19 | CC1(C)[C@H]2CC[C@](C)(C2)[C@H]1NS(=O)(=O)c1ccc(F)cc1

Reference: ChEMBL document CHEMBL1133739, “Fenchylamine sulfonamide inhibitors of amyloid beta peptide production by the gamma-secretase proteolytic pathway: potential small-molecule therapeutic agents for the treatment of Alzheimer's disease” (J Med Chem, 2000)
